Measured values reported in US6914045B2, “Glycopeptide antibiotics” (Wyeth Holdings Corporation, priority 2001, dated 2005).
In brackets after ≈: the same amount, converted by molar mass.

Assays:
Assay in all cases: in vitro antibacterial evaluation, MIC by broth dilution
Assay type in all cases: cell-based
Enterococcus sp. = conditions: broth dilution, 18 hours at 35° C.
Method in brief: (§1)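 Inoculum 5×10^5 CFU/mL; concentrations 64 to 0.06 μg/mL; MIC defined as lowest inhibitory level. Conducted by broth dilution under NCCLS guidelines.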

Streptococcus sp. = conditions: broth dilution, 18 hours at 35° C.
Method in brief: as §1

Staphylococcus sp. = conditions: broth dilution, 18 hours at 35° C.
Method in brief: as §1

Escherichia coli = conditions: 18 hours at 35° C.

CC(c1ccccc1)C1NC(=O)CNC(=O)C(CO)NC(=O)C(C(O)C2CNC(=N)N2C2OC(CO)C(O)C(O)C2O)NC(=O)C(C(O)C2CNC(=N)N2)NC(=O)C(Cc2ccc(OC3OC(CO)C(OC4OC(COCC=Cc5ccccc5)C(O)C(O)C4O)C(O)C3O)cc2)NC1=O (stereo not shown) [Example 242]
MIC Enterococcus avium (GC 4558) (Enterococcus sp.): 16 µg/mL (≈ 11.3 µM)
MIC Enterococcus faecalis (ATCC 29212) (Enterococcus sp.): 16 µg/mL (≈ 11.3 µM)
MIC Enterococcus faecalis (GC 2242) (Enterococcus sp.): 16 µg/mL (≈ 11.3 µM)
MIC Enterococcus faecalis (GC 2691) (Enterococcus sp.): 16 µg/mL (≈ 11.3 µM)
MIC Enterococcus faecalis (GC 3059) (Enterococcus sp.): 16 µg/mL (≈ 11.3 µM)
MIC Enterococcus faecalis (GC 4552) (Enterococcus sp.): 16 µg/mL (≈ 11.3 µM)
MIC Enterococcus faecalis (GC 4553) (Enterococcus sp.): 16 µg/mL (≈ 11.3 µM)
MIC Enterococcus faecalis (GC 4554) (Enterococcus sp.): 16 µg/mL (≈ 11.3 µM)
MIC Enterococcus faecalis (GC 6189) (Enterococcus sp.): 16 µg/mL (≈ 11.3 µM)
MIC Enterococcus faecium (GC 2243) (Enterococcus sp.): 16 µg/mL (≈ 11.3 µM)
MIC Enterococcus faecium (GC 4556) (Enterococcus sp.): 16 µg/mL (≈ 11.3 µM)
MIC Enterococcus faecium (GC 4557) (Enterococcus sp.): 8 µg/mL (≈ 5.67 µM)
MIC Enterococcus faecalis (ATCC 29212) (Enterococcus sp.; strain ATCC 29212): 16 µg/mL (≈ 11.3 µM)
MIC Enterococcus faecium (GC 2243) (Enterococcus sp.; strain GC 2243): 16 µg/mL (≈ 11.3 µM)
MIC Enterococcus faecalis (GC 4552) (Enterococcus sp.; strain GC 4552): 16 µg/mL (≈ 11.3 µM)
MIC Enterococcus faecalis (GC 4553) (Enterococcus sp.; strain GC 4553): 16 µg/mL (≈ 11.3 µM)
MIC Enterococcus faecalis (GC 4554) (Enterococcus sp.; strain GC 4554): 16 µg/mL (≈ 11.3 µM)
MIC Enterococcus faecium (GC 4556) (Enterococcus sp.; strain GC 4556): 16 µg/mL (≈ 11.3 µM)
MIC Enterococcus faecium (GC 4557) (Enterococcus sp.; strain GC 4557): 8 µg/mL (≈ 5.67 µM)
MIC Enterococcus avium (GC 4558) (Enterococcus sp.; strain GC 4558): 16 µg/mL (≈ 11.3 µM)
MIC Enterococcus faecalis (GC 6189) (Enterococcus sp.; strain GC 6189): 16 µg/mL (≈ 11.3 µM)
MIC Enterococcus faecalis (GC 2242) (Enterococcus sp.; inoculum 5×10^5 CFU/mL, strain GC 2242): 16 µg/mL (≈ 11.3 µM)
MIC Enterococcus faecalis (GC 2691) (Enterococcus sp.; inoculum 5×10^5 CFU/mL, strain GC 2691): 16 µg/mL (≈ 11.3 µM)
MIC Enterococcus faecalis (GC 3059) (Enterococcus sp.; inoculum 5×10^5 CFU/mL, strain GC 3059): 16 µg/mL (≈ 11.3 µM)
MIC Streptococcus agalactiae (GC 4564) (Streptococcus sp.): 2 µg/mL (≈ 1.42 µM)
MIC Streptococcus pneumoniae (ATCC 6301) (Streptococcus sp.): 1 µg/mL (≈ 0.708 µM)
MIC Streptococcus pneumoniae (GC 1894) (Streptococcus sp.): 0.5 µg/mL (≈ 0.354 µM)
MIC Streptococcus pneumoniae (GC 4565) (Streptococcus sp.): 0.5 µg/mL (≈ 0.354 µM)
MIC Streptococcus pyogenes (GC 4563) (Streptococcus sp.): 2 µg/mL (≈ 1.42 µM)
MIC Streptococcus pneumoniae (ATCC 6301) (Streptococcus sp.; inoculum 5×10^5 CFU/mL, strain ATCC 6301): 1 µg/mL (≈ 0.708 µM)
MIC Streptococcus pneumoniae (GC 1894) (Streptococcus sp.; inoculum 5×10^5 CFU/mL, strain GC 1894): 0.5 µg/mL (≈ 0.354 µM)
MIC Streptococcus pyogenes (GC 4563) (Streptococcus sp.; inoculum 5×10^5 CFU/mL, strain GC 4563): 2 µg/mL (≈ 1.42 µM)
MIC Streptococcus agalactiae (GC 4564) (Streptococcus sp.; inoculum 5×10^5 CFU/mL, strain GC 4564): 2 µg/mL (≈ 1.42 µM)
MIC Streptococcus pneumoniae (GC 4565) (Streptococcus sp.; inoculum 5×10^5 CFU/mL, strain GC 4565): 0.5 µg/mL (≈ 0.354 µM)
MIC Coagulase Negative Staphylococcus (GC 4547) (Staphylococcus sp.): 8 µg/mL (≈ 5.67 µM)
MIC Coagulase Negative Staphylococcus (GC 4548) (Staphylococcus sp.): 4 µg/mL (≈ 2.83 µM)
MIC Coagulase Negative Staphylococcus (GC 4549) (Staphylococcus sp.): 4 µg/mL (≈ 2.83 µM)
MIC Coagulase Negative Staphylococcus (GC 4551) (Staphylococcus sp.): 16 µg/mL (≈ 11.3 µM)
MIC Coagulase Negative Staphylococcus (GC 6257) (Staphylococcus sp.): 2 µg/mL (≈ 1.42 µM)
MIC Staphylococcus aureus (ATCC 29213) (Staphylococcus sp.): 8 µg/mL (≈ 5.67 µM)
MIC Staphylococcus aureus (GC 1131) (Staphylococcus sp.): 8 µg/mL (≈ 5.67 µM)
MIC Staphylococcus aureus (GC 3051) (Staphylococcus sp.): 8 µg/mL (≈ 5.67 µM)
MIC Staphylococcus aureus (GC 3053) (Staphylococcus sp.): 8 µg/mL (≈ 5.67 µM)
MIC Staphylococcus aureus (GC 4541) (Staphylococcus sp.): 4 µg/mL (≈ 2.83 µM)
MIC Staphylococcus aureus (GC 4542) (Staphylococcus sp.): 4 µg/mL (≈ 2.83 µM)
MIC Staphylococcus aureus (GC 4544) (Staphylococcus sp.): 8 µg/mL (≈ 5.67 µM)
MIC Staphylococcus aureus (GC 4545) (Staphylococcus sp.): 4 µg/mL (≈ 2.83 µM)
MIC Staphylococcus aureus-SMITH (GC 4543) (Staphylococcus sp.): 8 µg/mL (≈ 5.67 µM)
MIC Staphylococcus haemolyticus (GC 4546) (Staphylococcus sp.): 4 µg/mL (≈ 2.83 µM)
MIC Staphylococcus aureus (ATCC 29213) (Staphylococcus sp.; strain ATCC 29213): 8 µg/mL (≈ 5.67 µM)
MIC Staphylococcus aureus (GC 1131) (Staphylococcus sp.; strain GC 1131): 8 µg/mL (≈ 5.67 µM)
MIC Staphylococcus aureus (GC 3051) (Staphylococcus sp.; strain GC 3051): 8 µg/mL (≈ 5.67 µM)
MIC Staphylococcus aureus (GC 3053) (Staphylococcus sp.; strain GC 3053): 8 µg/mL (≈ 5.67 µM)
MIC Staphylococcus aureus (GC 4541) (Staphylococcus sp.; strain GC 4541): 4 µg/mL (≈ 2.83 µM)
MIC Staphylococcus aureus (GC 4542) (Staphylococcus sp.; strain GC 4542): 4 µg/mL (≈ 2.83 µM)
MIC Staphylococcus aureus-SMITH (GC 4543) (Staphylococcus sp.; strain GC 4543): 8 µg/mL (≈ 5.67 µM)
MIC Staphylococcus aureus (GC 4544) (Staphylococcus sp.; strain GC 4544): 8 µg/mL (≈ 5.67 µM)
MIC Staphylococcus aureus (GC 4545) (Staphylococcus sp.; strain GC 4545): 4 µg/mL (≈ 2.83 µM)
MIC Staphylococcus haemolyticus (GC 4546) (Staphylococcus sp.; strain GC 4546): 4 µg/mL (≈ 2.83 µM)
MIC Coagulase Negative Staphylococcus (GC 4547) (Staphylococcus sp.; strain GC 4547): 8 µg/mL (≈ 5.67 µM)
MIC Coagulase Negative Staphylococcus (GC 4548) (Staphylococcus sp.; strain GC 4548): 4 µg/mL (≈ 2.83 µM)
MIC Coagulase Negative Staphylococcus (GC 4549) (Staphylococcus sp.; strain GC 4549): 4 µg/mL (≈ 2.83 µM)
MIC Coagulase Negative Staphylococcus (GC 4551) (Staphylococcus sp.; strain GC 4551): 16 µg/mL (≈ 11.3 µM)
MIC Coagulase Negative Staphylococcus (GC 6257) (Staphylococcus sp.; strain GC 6257): 2 µg/mL (≈ 1.42 µM)
MIC Escherichia coli (ATCC 25922) (Escherichia coli): >64 µg/mL
MIC Escherichia coli (GC 4559) (Escherichia coli): >64 µg/mL
MIC Escherichia coli (GC 4560) (Escherichia coli): 2 µg/mL (≈ 1.42 µM)
